In this experiment the target is T1, Cdk2(ES) (Homo sapiens, UniProt P24941, C177A/F80C).
T1 construct: GST (N, cleaved yes); made in house; host or cells: E. coli Tuner(DE3)
Kind of experiment: concentration-dependent qIT with hyperbolic regression (Ki, kinact). It is filed as binding. Particulars: roughly linear dependency up to 500 μM. As to the method:
Next we sought to carry out comprehensive kinetic analysis of the covalent binding to better understand the covSAR trends. Accordingly, the concentration dependency for the rate of reaction between Cdk2(ES) and key acrylamides 1, 6, 9 and 11 were determined using qIT (Figure 7c). To maintain pseudo‐first‐order reaction kinetics and stay within the solubility limits of the fragments, ligands were titrated from 25 to 500 μM. […] Indeed, comparing the binding conformations of the merged (9 and 11) and parent (1 and 6) fragments, we observe a subtle shift in the position of the core scaffolds and the orientation of the acrylamide link that likely explains the jump in potency that resulted from fragment merging. Overall, comparing acrylamides 9 and 11, we observe in a 3.7‐fold increase in k inact/K i and a 4.3‐fold increase in REF, and the consistency between these two orthogonal metrics of covalent fragment potency is encouraging for future applications of qIT to covalent fragment optimization.
H. Intact-protein mass spectrometry
Protein-mass data were obtained on a Waters micromass LC-TOF mass spectrometer in positive ion mode using electrospray ionization. Samples were chromatographed using an Acquity UPLC protein BEH C4 column (2.1 mm × 50 mm, 2.7 µm) with a flow rate of 30 µL/min. The injection volume was 5 µL of protein solution (5 µM) in 30 mM ammonium bicarbonate buffer con-taining 0.5% formic acid and 20% MeOH. The gradient used was 100% mobile phase A (0.1% formic acid in water/MeOH (19:1)) ramping linearly to 90% mobile phase B (0.1% formic acid in MeOH) over 5 minutes. The spectra were acquired from 500 to 2500 Da and deconvolution was performed with MassLynx (Waters), using the maximum entropy algorithm, over a mass range of […] with a mass step of 0.75. […]
Cdk2(WT) or Cdk2(ES) (1 mg) was sequentially incubated with aliquots of CAK1 (3 × 0.05 mg) at r.t. for 4 hours at a time in 1.5 mL of a 30 mM Tris/HCl buffer (pH 7.5) containing 10 mM MgCl2, 10 mM ATP and 3 mM DTT. As CAK1 appeared to be-come rapidly inactivated in the presence of pCdk2, three repetitions were required to drive the reaction to completion. The resulting solution was incubated with 50 µL of glutathione-Sepharose beads and filtered to remove remaining CAK1.
Kinase assays were performed by coupling the conversion of ATP into ADP to the oxidation of NADH (Abs = 340 nm) into NAD+, mediated by lactate dehydrogenase (LDH) and pyruvate kinase (PK). WT, mutant or ligand-conjugated pCdk2 (12.5 or 50 nM) was preincubated with Cyclin A2 (20 nM) in a buffer containing 50 mM Tris/HCl, 10 mM MgCl2, 5 mM DTT, 1 mM phosphoenolpyruvate, 0.24 mM NADH, 10 U mL-1 LDH, 14 U mL-1 PK and 5% DMSO at 37 °C for 30 minutes. Reactions were initiated by addition of 0.5 mM ATP and 0.24 mM substrate peptide (PKTPKKAKKL) and the absorbance at 340 nm was moni-tored for two hours. Assays were conducted at 37 °C and carried out in clear 384-well plates (Nunc) using a SpectraMax i3x plate reader (Molecular Devices) with a final volume of 20 µL in each well. After plotting Abs 340 against time, enzyme velocity was measured from the gradient during the linear phase of product accumulation.
Q. Concentration dependent qIT
The rate of reaction (kobs) for the reaction between each acrylamide (25, 50, 125, 250 and 500 µM) with Cdk2(ES) (5 µM) was determined us qIT (see D. Rate Determination by qIT) in duplicate. The average kobs was plotted against acrylamide concen-tration and hyperbolic regression analysis performed using Prism 8.0 software (GraphPad) to derive kinact and Ki.

The structures appear in SMILES notation.

The term Ki denotes the equilibrium dissociation constant of an inhibitor or competing ligand from its target. The molecule `C=CC(=O)N1CCCc2cc(C(=O)OC)ccc21` [compound 1] displayed a Ki above 1000 µM. Then `C=CC(=O)N1CCN(CC)c2ccccc21` [compound 6], with above 1000 µM.

For the origin of these results see paper PMC7754465, “Multiparameter Kinetic Analysis for Covalent Fragment Optimization by Using Quantitative Irreversible Tethering (qIT)” (Chembiochem, 2020).
